# Measured values: patent publication US20210196685A1, “COMPOSITION FOR ERADICATING HELICOBACTER PYLORI” (HK INNO.N CORPORATION, priority 2018, published 2021)
# “Also recorded” adds a separate entry of the source.
# Tests used:
# [1] = Clinical Study 1, Cohort 2: 24-hour intragastric pH on repeated co-administration with amoxicillin/clarithromycin; type: in vivo, human
# Excerpt: To identify an effect of eradicating Helicobacter pylori in the present invention, a clinical study was designed in accordance with a randomized, open-label, active-controlled, parallel and multiple-dose design. A total of 221 patients were subjected to screening for this study. Out of them, 36 patients were registered thereto and the completed clinical results were obtained from 34 patients.
# Particularly, the 36 patients above were divided into three patient groups (T1, T2 and R) and the clinical study was performed accordingly. […]
# The T1 group was repeatedly given 50 mg of CJ-12420 and 1000 mg of amoxicillin/500 mg of clarithromycin twice a day for seven days; the T2 group was repeatedly given 100 mg of CJ-12420 and 1000 mg of amoxicillin/500 mg of clarithromycin twice a day for seven days; and the R group was repeatedly given 40 mg of pantoprazole and 1000 mg of amoxicillin/500 mg of clarithromycin twice a day for seven days. An intragastric pH was measured from all the subjects on Day 1 for 24 hours, and the intragastric pH was also measured for 24 hours on Day 1 and Day 7 of repeated administration. Also, a negative conversion rate was calculated upon a follow-up visit paid by subjects who were identified to be H. pylori positive on the UBT test during screening, and stability evaluation was performed according to a predetermined schedule. […]
# [2] = Clinical Study 1, Cohort 1: pharmacokinetic interaction of multiple-dose tegoprazan and amoxicillin/clarithromycin; type: in vivo, human; conditions: for change of AUC on administering the three formulations in combination (in words) / change of Cmax on administering the three formulations in combination (in words): tegoprazan + amoxicillin + clarithromycin in combination
# Protocol: To evaluate pharmacokinetic interaction of multiple-dose administration of single and combination of tegoprazan and amoxicillin/clarithromycin, a clinical study was designed in accordance with a randomized, open-label, and multiple-dose design.
# A total of 24 subjects who had been determined eligible to participate in the study were randomly assigned in a 1:1 ratio to each one of the two groups. Each randomly-assigned group was administered with investigational medical products as arranged during each intervention period and underwent a clinical study as designed. In consideration of the half-life of each product, a 14-day wash-out period was given between the intervention periods.
# A total of 24 subjects were divided into group 1 and group 2. During the first intervention period, subjects of group 1 (12 person) were repeatedly administered with 100 mg of tegoprazan twice a day for four days and administered once a day on the fifth day on which a pharmacokinetic clinical study was conducted. During the second intervention period after a 14-day wash-out period, they were repeatedly administered with 1000 mg of amoxicillin and 500 mg of clarithromycin twice a day for four days and administered once a day on the fifth day. During the third intervention period after a 14-day wash-out period, they were repeatedly administered with 100 mg of tegoprazan, 1000 mg of amoxicillin, and 500 mg of clarithromycin twice a day for six days and administered once a day on the seventh day. Following the last dose of each intervention period, pharmacokinetic blood samples were collected for 17 times over 72 hours in the first period, 14 times over 48 hours in the second period, and 19 times over 120 hours in the third period.
# Drugs were administered to subjects of group 2 (12 person) in the reverse order to the way the study was conducted on group 1 in the first and second intervention periods and in the same order in the third intervention period. Pharmacokinetic blood samples were collected in the same manner as group 1.
# The average plasma concentrations of tegoprazan, clarithromycin, and amoxicillin were measured and time-based plasma concentration and time-based drug concentration patterns were observed when tegoprazan was repeatedly administered alone, amoxicillin/clarithromycin were repeatedly administered and tegoprazan, amoxicillin, and clarithromycin were repeatedly administered in combination.
# Pharmacokinetics of tegoprazan, amoxicillin, and clarithromycin were evaluated. Descriptive statistics of pharmacokinetic evaluation parameters were presented. Point estimates for geometric mean ratio between each group and 90% confidence interval were calculated from the log-converted primary pharmacokinetic evaluation parameters by using a linear mixed effect model.
# [3] = tegoprazan 100 mg twice a day, with amoxicillin 1000 mg/clarithromycin 500 mg versus alone
"increase of AUC when administered in combination with amoxicillin/clarithromycin [2, 3] [times]","increase of Cmax when administered in combination with amoxicillin/clarithromycin [2, 3] [times]",SMILES,speed of intragastric pH increase (to 6 or more) right after the administration [1],change of AUC on administering the three formulations in combination (in words) [2],change of Cmax on administering the three formulations in combination (in words) [2]
2.70,2.24,"Cc1nc2c(OC3CCOc4cc(F)cc(F)c43)cc(C(=O)N(C)C)cc2[nH]1 (stereo not shown) [Tegoprazan, 4-[(5,7-difluoro-3,4-dihydro-2H-chromene-4-yl)oxy]-N,N,2-trimethyl-1H-benzimidazole-6-carboxamide]",two hours or less,increased,increased
–,–,"CC[C@H]1OC(=O)[C@H](C)[C@@H](O[C@H]2C[C@@](C)(OC)[C@@H](O)[C@H](C)O2)[C@H](C)[C@@H](O[C@@H]2O[C@H](C)C[C@H](N(C)C)[C@H]2O)[C@](C)(OC)C[C@@H](C)C(=O)[C@H](C)[C@@H](O)[C@]1(C)O [clarithromycin, (3R,4S,5S,6R,7R,9R,11R,12R,13S,14R)-6-[(2S,3R,4S,6R)-4-(dimethylamino)-3-hydroxy-6-methyloxane-2-yl]oxy-14-ethyl-12,13-dihydroxy-4-[(2R,4R,5S,6S)-5-hydroxy-4-methoxy-4,6-dimethyloxane-2-yl]oxy-7-methoxy-3,5,7,9,11,13-hexamethyl-oxacyclotetradecane-2,10-dione, reference compound]",–,tendency to increase; also recorded: increased,tendency to increase; also recorded: increased
